Experimental data from patent US11407761B2, “Derivative of β-apopicropodophyllin and method of preparing thereof” (J&C Sciences, priority 2020, dated 2022).

Experiments:
A549 = test: PrestoBlue cell viability, A549; assay type: cell-based, Human
Description: (§1) Human lung cancer cells A549, NCl-H460 and 7 cancer cell lines were cultured in RPMI 1640 medium containing 10% FBS (Gibco, USA) and 1% penicillin-streptomycin. Human colon cancer cell HCT-116 cell line was cultured in McCoy's 5A medium containing 10% FBS (Gibco, USA) and 1% penicillin-streptomycin. Human leukemia cancer cell HL-60 cell line was cultured in IMDM medium containing 20% FBS (Gibco, USA) and 1% penicillin-streptomycin. Human normal cell line WI-38 was cultured in MEM containing 10% FBS (Gibco, USA), 1% penicillin-streptomycin, and 1% Non-Essential Amin Acids solution. Human normal cell line HUVEC cultured in Human Endothelial Growth Medium containing. All the cells were cultured in sterilized cell culture plastic dishes or 96-well plastic plates in a humidified incubator filled with 95% air and 5% CO2 gas and maintained at a temperature of 37° C.
(§2) First, the cells are seeded in a 96-well plate (Nunc, 165305) at a volume of 100 μl, and then cultured in an incubator overnight to confirm that they grow well on the plate. Depending on the concentration of the drugs, each well is treated with 100 μl of the compound and then incubated to allow cells and compounds to react for 48 hrs. PrestoBlue Cell Viability Reagent (Invitrogen, A13262) was added to the compound-treated well, and then the plates were incubated in a humidified incubator at 37° C. for 30 mins. Each well was measured at a fluorescence detected with the wavelength of an excitation of 560 nm and an emission of 590 nm using by microplate reader (BioTek, Synergy H1). The IC50 value is calculated by using the Gen5 software.

H460 = test: PrestoBlue cell viability, H460; assay type: cell-based, Human; settings: Homo sapiens, lung
Description: as §1, §2

H1299 = test: PrestoBlue cell viability, H1299; assay type: cell-based; settings: Homo sapiens, NCI-H1299; lung, H1299, 48 h
Description: as §1, §2

H1650 = test: PrestoBlue cell viability, H1650; assay type: cell-based; settings: Homo sapiens, NCI-H1650; lung, H1650, 48 h
Description: as §1, §2

H1975 = test: PrestoBlue cell viability, H1975; assay type: cell-based; settings: Homo sapiens, NCI-H1975; lung, H1975, 48 h
Description: as §1, §2

HCC827 = test: PrestoBlue cell viability, HCC827; assay type: cell-based; settings: Homo sapiens; lung, HCC827, 48 h
Description: as §1, §2

H146 = test: PrestoBlue cell viability, H146; assay type: cell-based; settings: Homo sapiens, NCI-H146; lung, H146, 48 h
Description: as §1, §2

MCF-7 = test: PrestoBlue cell viability, MCF-7; assay type: cell-based; settings: Homo sapiens, MCF7; breast, MCF-7, 48 h
Description: as §1, §2

MDA-MB-231 = test: PrestoBlue cell viability, MDA-MB-231; assay type: cell-based; settings: Homo sapiens; breast, MDA-MB-231, 48 h
Description: as §1, §2

HCT-116 = test: PrestoBlue cell viability, HCT-116; assay type: cell-based; settings: Homo sapiens; colon, HCF116 (HCT-116), 48 h
Description: as §1, §2

HL-60 = test: PrestoBlue cell viability, HL-60; assay type: cell-based, Human; settings: HL-60, 48 h, leukemia
Description: as §1, §2

CFPAC-1 = test: PrestoBlue cell viability, CFPAC-1; assay type: cell-based; settings: Homo sapiens; pancreas, CFPAC-1, 48 h
Description: as §1, §2

BxPC-3 = test: PrestoBlue cell viability, BxPC-3; assay type: cell-based; settings: Homo sapiens; pancreas, BxPC-3, 48 h
Description: as §1, §2

WI-38 = test: PrestoBlue toxicity test, normal cells WI-38; assay type: cell-based, Human; settings: WI-38, 48 h
Description: as §1, §2

HUVEC = test: PrestoBlue toxicity test, normal cells HUVEC; assay type: cell-based, Human; settings: 48 h
Description: as §1, §2

K562 = test: PrestoBlue cell viability, K562; assay type: cell-based, Human; settings: Homo sapiens; leukemia, K562, 48 h
Description: as §1, §2

WI-26 = test: PrestoBlue toxicity test, normal cells WI-26; assay type: cell-based, Human; settings: WI-26, 48 h

Row | IC50 (A549; Homo sapiens; lung, A549, 48 h) [µM] | IC50 (H460; NCI-H460, H460, 48 h) [µM] | SMILES | IC50 (H1299) [µM] | IC50 (H1650) [µM] | IC50 (H1975) [µM] | IC50 (HCC827) [µM] | IC50 (H146) [µM] | IC50 (MCF-7) [µM] | IC50 (MDA-MB-231) [µM] | IC50 (HCT-116) [µM] | IC50 (CFPAC-1) [µM] | IC50 (BxPC-3) [µM] | IC50 (WI-38; Homo sapiens) [µM] | IC50 (HUVEC; Homo sapiens) [µM] | IC50 (HL-60) [µM] | IC50 (K562) [µM] | IC50 (WI-38) [µM] | IC50 (WI-26; Homo sapiens, 48 h) [µM] | IC50 (WI-26) [µM] | IC50 (HUVEC) [µM] | also measured
1 | 2.16 | 0.971 | COc1cc([C@@H]2c3cc4c(cc3[C@@H](O[C@@H]3O[C@@H]5CO[C@@H](C)O[C@H]5[C@H](O)[C@H]3O)[C@H]3COC(=O)[C@H]23)OCO4)cc(OC)c1O [Etoposide, reference compound] | 40.1 | > 50 | > 50 | > 50 | > 50 | > 50 | > 50 | 7.29 | 42 | > 50 | > 50 | > 50 |  |  |  |  |  |  | IC50 (HL-60; Homo sapiens): 2.43 µM
2 |  |  | COc1cc([C@@H]2C3=C(COC3=O)Cc3cc4c(cc32)OCO4)cc(OC)c1OC(C)=O [example 1, Acetic acid (5S)-2,6-dimethoxy-4-(6-oxo-5,6,8,9-tetrahydrofuro[3′,4′:6,7]naphtho[2,3-d][1,3]dioxol-5-yl)-phenyl ester] | > 50 | > 50 | > 50 | > 50 | > 50 | > 50 | > 50 | 0.129 | > 50 | > 50 | ≥ 50 | ≥ 50 | 0.03 | > 50 | > 50 | ≥ 50 | > 50 | > 50 | IC50 (A549; Homo sapiens, A549, 48 h, lung): 0.065 µM; IC50 (H460; NCI-H460, 48 h): 0.06 µM
3 |  |  | COc1cc([C@@H]2C3=C(COC3=O)Cc3cc4c(cc32)OCO4)cc(OC)c1OC(=O)c1ccccc1 [example 2, Benzoic acid (5S)-2,6-dimethoxy-4-(6-oxo-5,6,8,9-tetrahydrofuro[3′,4′:6,7]naphtho[2,3-d][1,3]dioxol-5-yl)-phenyl ester] | > 50 | > 50 | > 50 | > 50 | > 50 | > 50 | > 50 | 1.39 | > 50 | > 50 | ≥ 50 | ≥ 50 | 0.25 | > 50 | > 50 | ≥ 50 | > 50 | > 50 | IC50 (A549; Homo sapiens, A549, 48 h, lung): 0.202 µM; IC50 (H460; NCI-H460, 48 h): 0.134 µM
4 | 0.127 | 0.174 | COc1cc([C@@H]2C3=C(COC3=O)Cc3cc4c(cc32)OCO4)cc(OC)c1OCc1ccccc1 [example 3, (5S)-5-(4-Benzyloxy-3,5-dimethoxy-phenyl)-5,9-dihydro-8H-furo[3′,4′:6,7]naphtho[2,3-d][1,3]dioxol-6-one] | > 50 | > 50 | > 50 | > 50 | > 50 | > 50 | > 50 | 0.234 | > 50 | > 50 | ≥ 50 | ≥ 50 | 0.181 | > 50 | > 50 | ≥ 50 | > 50 | > 50 | 
